The record followed here is ChEMBL document CHEMBL1201862, “PubChem BioAssay data set” (2004).

The target in experiment [1] is T1, RNA-binding protein pos-1 (Caenorhabditis elegans, UniProt G5EF15).
T1 sequence (G5EF15 whole entry): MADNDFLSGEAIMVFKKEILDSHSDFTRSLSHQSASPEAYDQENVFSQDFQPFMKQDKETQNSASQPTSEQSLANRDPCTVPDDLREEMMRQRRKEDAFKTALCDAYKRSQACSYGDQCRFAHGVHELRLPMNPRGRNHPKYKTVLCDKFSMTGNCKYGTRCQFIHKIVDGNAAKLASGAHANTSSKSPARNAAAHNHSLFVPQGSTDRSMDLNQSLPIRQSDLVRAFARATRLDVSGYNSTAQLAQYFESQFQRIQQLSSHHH
The experiment is described as follows: disruptors of C. elegans POS-1 RNA interaction – biochemical, fluorescence polarization, dose response (AID 1964).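 Further: purified POS-1 fused to maltose binding protein made in E. coli; potency of compounds blocking POS-1 binding to fluorescent RNA.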

For experiment [2], the target named is T2, Zinc finger protein mex-5 (Caenorhabditis elegans, UniProt Q9XUB2).
T2 sequence (Q9XUB2 whole entry): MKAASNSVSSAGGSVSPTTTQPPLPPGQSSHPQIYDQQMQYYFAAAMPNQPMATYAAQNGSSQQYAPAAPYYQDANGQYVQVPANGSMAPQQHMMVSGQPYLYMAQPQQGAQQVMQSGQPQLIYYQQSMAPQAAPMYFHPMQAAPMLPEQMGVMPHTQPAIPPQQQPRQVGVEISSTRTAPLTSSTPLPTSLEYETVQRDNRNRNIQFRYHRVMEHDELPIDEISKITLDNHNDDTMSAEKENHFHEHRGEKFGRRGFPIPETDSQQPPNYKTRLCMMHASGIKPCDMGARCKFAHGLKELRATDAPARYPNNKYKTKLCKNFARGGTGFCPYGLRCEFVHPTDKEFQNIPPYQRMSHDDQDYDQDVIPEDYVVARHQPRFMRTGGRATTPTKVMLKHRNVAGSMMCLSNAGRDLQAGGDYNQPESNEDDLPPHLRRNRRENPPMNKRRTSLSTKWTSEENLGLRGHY
The experiment is described as follows: potency of MEX-5 RNA-binding blockers – biochemical, C. elegans, fluorescence polarization, dose response (AID 1960).

Experiment [3] relates to Streptococcus. The experiment is described as follows: GAS UMAA2166 growth inhibition – luminescence, BacTiterGlo, counter-screen for streptokinase expression inhibitor project, dose response (AID 1915).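 Further: potency for reduction of bacterial viability or growth.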 In kind it is functional, organism-based.
The test system of experiment [4] is Streptococcus sp. 'group A'. The experiment is described as follows: Streptococcus pyogenes SK(-)GAS viability under kanamycin – luminescence, BacTiterGlo, confirmation, counter-screen for streptokinase expression inhibitor project, dose response (AID 1900). It is filed as functional, organism-based.
For experiment [5], the target named is T3, Streptokinase A (Streptococcus pyogenes serotype M1, UniProt P10520).
T3 sequence (P10520 whole entry): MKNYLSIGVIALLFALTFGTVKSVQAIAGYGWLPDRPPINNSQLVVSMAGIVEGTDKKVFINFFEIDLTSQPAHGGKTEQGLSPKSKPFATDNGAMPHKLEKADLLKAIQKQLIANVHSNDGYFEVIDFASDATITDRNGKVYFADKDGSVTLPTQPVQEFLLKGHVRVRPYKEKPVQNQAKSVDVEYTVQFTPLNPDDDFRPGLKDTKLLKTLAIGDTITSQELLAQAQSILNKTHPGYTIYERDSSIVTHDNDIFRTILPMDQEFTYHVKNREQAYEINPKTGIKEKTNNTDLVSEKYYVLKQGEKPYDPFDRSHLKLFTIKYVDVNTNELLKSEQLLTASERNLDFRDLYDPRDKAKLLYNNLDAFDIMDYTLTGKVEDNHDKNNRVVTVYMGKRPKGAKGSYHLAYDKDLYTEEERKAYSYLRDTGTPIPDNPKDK
The experiment is described as follows: viability-normalized secreted streptokinase activity reduction – plasminogen activation absorbance, OD405, dose response (AID 1914).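 Further: secreted streptokinase activity via plasminogen activation per viability signal from cell pellet.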 It is filed as functional, Streptococcus pyogenes M1 GAS.

Experiment [6] deals with T4, Corticotropin-releasing factor receptor 2/Corticotropin-releasing factor-binding protein (Homo sapiens, UniProt P24387+Q13324).
T4 sequence (Q13324 whole entry): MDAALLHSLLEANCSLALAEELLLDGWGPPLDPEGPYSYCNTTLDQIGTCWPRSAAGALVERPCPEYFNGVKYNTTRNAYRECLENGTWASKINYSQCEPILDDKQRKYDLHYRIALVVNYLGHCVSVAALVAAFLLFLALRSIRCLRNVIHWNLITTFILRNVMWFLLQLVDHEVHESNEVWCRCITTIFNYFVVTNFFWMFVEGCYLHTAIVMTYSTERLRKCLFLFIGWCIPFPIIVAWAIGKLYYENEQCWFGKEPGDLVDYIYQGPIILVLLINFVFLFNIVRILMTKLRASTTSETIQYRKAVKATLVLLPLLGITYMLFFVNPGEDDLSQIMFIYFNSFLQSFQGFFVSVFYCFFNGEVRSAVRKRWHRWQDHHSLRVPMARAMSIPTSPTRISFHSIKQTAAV
T4 sequence (P24387 whole entry): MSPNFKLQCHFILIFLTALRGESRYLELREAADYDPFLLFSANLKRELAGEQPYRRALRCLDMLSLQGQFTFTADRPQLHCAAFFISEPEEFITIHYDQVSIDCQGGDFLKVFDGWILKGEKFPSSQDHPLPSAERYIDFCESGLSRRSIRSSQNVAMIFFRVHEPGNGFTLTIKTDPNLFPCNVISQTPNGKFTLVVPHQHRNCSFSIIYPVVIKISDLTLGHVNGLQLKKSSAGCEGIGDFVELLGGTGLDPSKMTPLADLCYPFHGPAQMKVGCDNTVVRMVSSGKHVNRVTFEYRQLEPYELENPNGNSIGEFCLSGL
As to the kind of experiment: Dose Response confirmation of uHTS hits for small molecule antagonists of the CRF-binding protein and CRF-R2 receptor complex. It is filed as functional. Conditions: read-out: IC50_Mean.

Experiment [7] has as its target T4, Corticotropin-releasing factor receptor 2/Corticotropin-releasing factor-binding protein. As to the kind of experiment: activators of CRF receptor 2 with binding protein – uHTS hits, confirmation (AID 602473). In kind it is functional. Particulars: read-out: EC50_Mean.
Experiment [8] is described as follows: Luminescence Cell-Based Dose Response HTS to Identify Activators of Luciferase Translation or Activity in H4 […] Cells. [Related pubchem assays: 1829 (Project Summary), 1814 (Primary HTS)]. In kind it is functional.
In experiment [9] the test system is H4. As to the kind of experiment: Luminescence Cell-Based Dose Response HTS to Identify Activators of 5'UTR Stem-Loop Driven Prion Protein mRNA Translation in H4 Neuroglioblastoma Cells. [Related pubchem assays: 1829 (Project Summary), 1814 (Primary HTS)]. Conditions: Homo sapiens. In kind it is functional.
Experiment [10] in a line: NIH-3T3 fibroblast cytotoxicity, dose response, cytotoxicity control, cell-based, fluorescence, Alamar Blue, secondary assay (AID 2327).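 Further: NIH-3T3 mouse fibroblasts cultured with fluconazole at 8 µg/mL.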 It is filed as functional.
The nature of experiment [11]: fluconazole-exposed Candida albicans growth modulators – fluorescence, retest, confirmation (AID 2467). In kind it is functional, cell-based.
Experiment [12] in a line: Luminescence Cell-Based Dose Retest to Confirm Inhibitors of Cancer Stem Cells. [Related pubchem assays (depositor defined):AID2717, AID2721]. Conditions: Homo sapiens. In kind it is functional.

Active and inactive are the calls of the source. For most assays here, no stated cut-off is given here; in the data, actives have a measured EC50 and inactives only a lower limit.
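Wherever AC50 is given: cells exposed to compound for roughly 70 hours or longer before luminescence read.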

In the case of `CC(C)(C)N=C(S)NCCc1ccccc1`, the EC50 in [1] was > 300 µM (inconclusive); in [2], > 300 µM (not active).
For the compound `COc1cc(/C=C2\SC(Nc3cccnc3)=NC2=O)cc(OC)c1OC`, the EC50 in experiment [3] is 68.5 µM (active); in [4], 36.8 µM (active); in [5], > 150 µM (not active).
In the case of `N#CC(C#N)=Cc1ccc(NC(=O)c2ccc(Br)cc2)cc1`, the EC50 in experiment [1] and in [2] was > 300 µM (not active) throughout.
Take `CC1CCN(C(=O)C2CCN(S(=O)(=O)c3cccnc3)CC2)CC1`: the IC50 in experiment [6] is > 47.1 µM (inactive). In addition, in experiment [7], the EC50 was > 53 µM (inactive).
With `Nc1nc(CN2CCC(Cc3ccccc3)CC2)nc(Nc2ccccc2)n1`, the EC50 in experiment [3] was > 150 µM (not active); in [4], 14.8 µM (active); in [5], > 150 µM (not active).
Consider `CCCC(=O)NCCc1ccc(F)cc1`, for which the EC50 in experiment [3], in experiment [4] and in experiment [5] was > 150 µM (not active) throughout.
Take `O[C@@H]1CCCN2CCc3c([nH]c4ccccc34)[C@H]12`: the EC50 in experiment [3], in experiment [4] and in experiment [5] was > 150 µM (not active) in each case.
With `Cc1ccn(C(=O)c2ccc(NC(=O)C3CCCCC3)cc2)n1`, the IC50 in experiment [6] is > 47.1 µM (inactive). In addition, the EC50 in experiment [7] was > 53 µM (inactive).
As for `CC(C)C/C=C1\CCc2c([nH]c3ccccc23)C1=O`, the EC50 in experiment [8] was 27.8 µM (active); in experiment [9] it was 45.4 µM (active).
For the compound `O=C(COc1ccc(Cl)cc1Cl)Nc1ccccc1NS(=O)(=O)c1cccs1`, the IC50 in experiment [6] is > 47.1 µM (inactive). The EC50 in [7] was 33.1 µM (active).
Take `COC(=O)c1ccc(NC(=O)COC(=O)CSc2nc(C)cc(C)n2)cc1`: the IC50 in [6] was > 47.1 µM (inactive). The EC50 in experiment [7] is > 53 µM (inactive).
Regarding `O=C(Nc1ccc(F)cc1)c1nc2c(nnn2Cc2cccc3ccccc23)c(=O)[nH]1`, in [5], the EC50 is > 150 µM (not active).
As to `Cc1ccc(-c2ccc(CCC(=O)O)n2-c2cccc(C(=O)O)c2)cc1`, the EC50 in experiment [1] and in experiment [2] was > 300 µM (not active) throughout.
`CC(C)(C)NS(=O)(=O)c1ccc(NS(=O)(=O)Cc2ccccc2)cc1`: the EC50 in experiment [3], in experiment [4] and in experiment [5] was > 150 µM (not active) in each case.
For the compound `O=C(Nc1scc(-c2ccc(Br)cc2)c1C(=O)O)c1ccccc1F`, the EC50 in experiment [3] is 11 µM (active); in [4] it was 2.83 µM (active); in [5], 9.9 µM (active).
Consider `CC1(C)CC(=O)C2=C(C1)OC(N)=C(C#N)[C@@]21C(=O)N(CC(N)=O)c2ccccc21`, for which the EC50 in experiment [1] and in experiment [2] was > 300 µM (not active) in each case.
As for `Cc1ccc(C(C)C)cc1OCC(=O)Nc1ccccc1N1CCCC1`, the EC50 was > 150 µM (not active) in experiment [3] and 14.1 µM (active) in experiment [5].
Regarding `O=C(NNC(=O)c1cc2ccccc2cc1O)Nc1ccccc1F`, the EC50 in experiment [10] was > 160 µM (inactive); in experiment [11] it was > 38 µM (not active).
On to `COc1ccccc1Oc1c[nH]nc1-c1ccc(OCC(=O)NN)cc1O`, for which the EC50 in experiment [3] was > 150 µM (not active); in experiment [1] it was > 300 µM (not active); in [4], > 150 µM (not active); in [5] it was > 150 µM (not active); in [2], 120 µM (active).
`Cc1cc(C)cc(N2C(=O)/C(=C/Nc3ccc(N4CCOCC4)cc3)C(=O)NC2=S)c1`: the EC50 in [1] is 7.92 µM (active); in experiment [2], 5.42 µM (inconclusive).
On to `Cc1ccc(C(=O)Nc2nc3ccccc3n2CCN2CCCC2)cc1`, for which the EC50 in [9] was 10.9 µM (active).
Consider `CC1(OC(=O)C2CCCC2)C(=O)C=C2C=C(c3ccsc3)OC=C2C1=O` (centres undefined), for which the EC50 in experiment [1] was 47.8 µM (active); in experiment [2], 37.1 µM (active).
Taken in the same sequence, the figures for `O=C1OCc2cc(-n3cccc3)ccc21` were > 300 µM (not active) and > 300 µM (not active).
For `CCOC(=O)C1Nc2ccc(OC(F)(F)F)cc2C2C=CCC12` (centres undefined), the EC50 in experiment [1] and in experiment [2] was > 300 µM (not active) in each case.
Take `COc1ccc(C(=O)/C=C/c2ccc(N3CCCCC3)c([N+](=O)[O-])c2)c(OC)c1`: the EC50 in experiment [1] and in experiment [2] was > 300 µM (not active) throughout. Further, the AC50 in [12] is 4.31 µM (active).
`O=C(ONC1=NCCCCC1)c1cccc([N+](=O)[O-])c1`: the EC50 in experiment [10] was > 150 µM (inactive); in [11] it was 2.12 µM (active).
As for `Cc1cccc(NC(=O)/C(C#N)=C\c2cc(C)n(-c3ccc(C(=O)O)cc3)c2C)c1`, the results for the EC50 in experiment [1] and in [2] were 84 µM (active) and > 300 µM (not active), respectively.
For the compound `CCn1c(SCC(=O)N2CCCCC2)nc2c(c1=O)SCC2`, the IC50 in [6] was > 47.1 µM (inactive). Further, the EC50 in experiment [7] is > 53 µM (inactive).
Taken in the same sequence, the figures for `Cc1cc(NC(=O)CN2C(=O)NC(CC(C)C)C2=O)no1` (centres undefined) were > 47.1 µM (inactive) and > 53 µM (inactive).
On to `C=C(C)CNC(=S)N/N=C1\CCCCc2ccccc21`, for which the EC50 in experiment [10] is 62.5 µM (active); in [11], 6.24 µM (active).
Taken in the same sequence, the figures for `Cc1ccsc1/C=N/NS(=O)(=O)c1ccc([N+](=O)[O-])cc1` were > 150 µM (inactive) and 1.81 µM (active).
Consider `CN(/C(=N/S(=O)(=O)c1cccs1)c1ccccc1)c1ccc(O)cc1`, for which the EC50 is > 150 µM (inactive) in experiment [10] and > 38 µM (not active) in experiment [11].
Taken in the same sequence, the figures for `O=C1NCCN1CCNS(=O)(=O)c1cc(C(F)(F)F)cc(C(F)(F)F)c1` were > 150 µM (inactive) and > 38 µM (not active).
